pEC50: −log10 of the molar value.
How the values were obtained:
[1] = tested on: 3T3-L1 preadipocytes; assay: 3T3-L1 Adipocyte Differentiation Assay (ADPDIFF), Test A; assay type: cell-based; conditions: BODIPY lipid fluorescence, reported as % of BRL 49653 at 5 μM
Method: Cells are replenished with FBS containing media on day 5 of post-drug treatment and incubated for additional 4-6 days. Cells are stained with BODIPY a fluorescent lipophilic stain to quantitate the lipid content of the cells. The assay is optimized for a 96-well plate format. Approximately after 10 days of post-drug treatment, cells are fixed in 3% formalin solution for 15 min followed by staining with BODIPY (80 μg/ml) for 20 min at room temperature. The plate is then put through the CYTOFLUOR instrument to measure the fluorescence of BODIPY (excitation=485/20; emission=530/25).

[2] = tested on: endogenous nuclear receptors in CV-1 cells; assay: CV-1 Native Receptors Transcription Assay (MKNRCV1), Test C; assay type: cell-based, African green monkey; conditions: for MKNRCV1 % BRL @ 25 μM / MKNRCV1 % BRL @ 5 μM: percent activity of BRL 49653; for MKNRCV1 % BRL @ 5 μM: 5 μM (stated in the cell); for pEC50: Chlorocebus sabaeus, CV-1 cells, 48 hours, unit inferred
[3] = tested on: CV-1 cells (FATP promoter luciferase reporter, 300 nM BRL); assay: ANTCV1 Antagonist Transcription Assay, Test B; assay type: cell-based, African green monkey; conditions: Chlorocebus sabaeus, 25 μM test compound with 300 nM BRL, 48 hrs, % BRL inhibition, read-out: ANTCV1 INHIB @ 25 μM

Structure (SMILES)	ADPDIFF % BRL @ 5 μM [1] [% BRL]	MKNRCV1 % BRL @ 25 μM [2] [% BRL]	inhibition at 25 µM [3] [%]	MKNRCV1 % BRL @ 5 μM [2]	pEC50 [2]
O=C(O)[C@H](Cc1ccc(CCCN2CCC(c3ccccc3)CC2)cc1)n1cccc1 [drawing 293]	38	22	50	–	–
Cc1oc(-c2ccccc2)nc1CCOc1ccc(CC(C(=O)O)c2ccccc2)cn1 (centres unmarked) [drawing 309]	–	–	-58	75 @ 5 μM % BRL	–
Cc1oc(-c2ccccc2)nc1CCOc1ccc(C[C@@H](C(=O)NS(C)(=O)=O)n2cccc2)cc1	110	97	-30	–	5.49
CCc1nnc(C(Cc2ccc(OCCc3nc(-c4ccccc4)oc3C)cc2)c2ccccc2)o1 (centres unmarked) [drawing 225]	161	61	47	–	–
Cc1oc(-c2ccccc2)nc1C/C=C/c1ccc(C[C@@H](C(=O)O)n2cccc2)cc1	76	94	–	–	–
Cc1cc(OCCc2nc(-c3ccccc3)oc2C)ccc1CC(C(=O)O)c1ccccc1 (centres unmarked)	–	–	–	–	6.00
O=C(c1ccn(C(Cc2ccc(OCc3ccccc3F)cc2)C(=O)O)c1)C1CCCCC1 (centres unmarked)	12	28	1	–	–
Cc1oc(-c2ccccc2)nc1CCOc1ccc(C[C@@H](c2nnco2)n2cccc2)cc1	45	–	49	37 @ 5 μM % BRL	–
CN(CCOc1ccc(CC(C(=O)O)n2ccc(C(=O)C3CCCCC3)c2)cc1)c1nc2ccccc2o1 (centres unmarked)	112	65	4	–	4.95
CC(=O)c1c(C(C)=O)c(C)n([C@@H](Cc2ccc(OCCc3nc(-c4ccccc4)oc3C)cc2)C(=O)O)c1C	0	24	3	–	–
Cc1oc(-c2ccccc2)nc1CCOc1ccc(CC(C)(C(=O)O)n2cccc2)cc1 (centres unmarked)	117	87	-80.3	–	5.70
Cc1oc(-c2ccccc2)nc1CCOc1ccc(CC(C(=O)O)n2ccc(C(=O)C3CCCCC3)c2)cc1 (centres unmarked)	82	83	-12	–	5.33
Cc1oc(-c2ccccc2)nc1CCOc1ccc(C[C@@H](C(=O)O)n2ccc(Br)c2)cc1	84	85	-57.5	–	7.22
O=C(O)[C@H](Cc1ccc(OCCc2ccccc2C(F)(F)F)cc1)n1cccc1	112	80	-27	–	6.40
Cc1oc(-c2ccccc2)nc1CCOc1ccc(CC(C(=O)O)c2nc(-c3ccccc3)oc2C)cc1 (centres unmarked) [drawing 261]	–	–	18	110 @ 5 μM % BRL	–
COC(=O)[C@H](Cc1ccc(/C=C/CN2CCC(c3ccccc3)CC2)cc1)n1cccc1	32	47	25	–	–
Cc1oc(-c2ccccc2)nc1CCOc1ccc(C[C@@H](C(=O)O)n2c(C)cc(Cl)c2C)cc1	28	55	5	–	–
Cc1oc(-c2ccccc2)nc1CCOc1ccc(CC(C)(C(=O)O)c2ccccc2)cc1 (centres unmarked) [drawing 218]	99	44	65	–	4.89
CN(CC#Cc1ccc(CC(C(=O)O)n2cccc2)cc1)c1ccccn1 (centres unmarked)	6	71	-32	–	–
Cc1oc(-c2ccccc2)nc1CCOc1ccc([C@@H](C(=O)O)n2cccc2C(=O)c2ccccc2)cc1	–	58	-5	39 % BRL	–
Cc1oc(-c2ccccc2)nc1CCOc1ccc(CC(C(=O)O)n2ccc(-c3ccccc3)c2)cc1 (centres unmarked)	125	54	29	–	6.05
CN(C/C=C/c1ccc(C[C@@H](C(=O)O)n2cccc2)cc1)c1ccccn1	94	92	-36	–	6.05
Cc1oc(-c2ccccc2)nc1CCOc1ccc(C[C@@H](C(=O)O)n2c(C)ccc2C)cc1	26	11	80	–	–
O=C(O)[C@H](Cc1ccc(OCc2ccccc2F)cc1)n1cccc1	21	92	-46	–	5.85
Cc1oc(-c2ccccc2)nc1CCNc1ccc(C[C@@H](C(=O)O)n2cccc2)cc1	–	157	–	–	–

Structure (SMILES)	ADPDIFF % BRL @ 5 μM [1] [% BRL]	MKNRCV1 % BRL @ 25 μM [2] [% BRL]	inhibition at 25 µM [3] [%]	MKNRCV1 % BRL @ 5 μM [2]	pEC50 [2]
O=C(O)[C@H](Cc1ccc(/C=C/CN2CCC(c3ccccc3)CC2)cc1)n1cccc1 [drawing 292]	183	40	44	–	–
Cc1oc(-c2ccccc2)nc1CCOc1ccc(CC(C)(C)C(=O)O)cc1 [drawing 217]	131	34	59	–	–
Cc1oc(-c2ccccc2)nc1CCOc1ccc(CC(C(=O)O)c2ccccc2)cn1 (centres unmarked) [drawing 262]	–	–	–	–	5.92
Cc1oc(-c2ccccc2)nc1CC#Cc1ccc(CC(C(=O)O)c2cccc(-c3ccccc3)c2)cc1 (centres unmarked)	–	–	-3	48 @ 5 μM % BRL	–
Cc1cc(-c2cc(O)c(Sc3cccc(C(=O)O)c3)oc2=O)ccc1OCc1ccccc1	–	–	-29	26 @ 5 μM % BRL	–
Cc1nc(-c2ccc(C(F)(F)F)cc2)sc1CSc1ccc(OCC(=O)O)cc1	–	70	-58	–	–
CCCc1nnc([C@H](Cc2ccc(OCCc3nc(-c4ccccc4)oc3C)cc2)n2cccc2)o1	94	0	84	–	–
COC(=O)[C@H](Cc1ccc(C#CCc2nc(-c3ccccc3)oc2C)cc1)n1cccc1	90	123	-114	–	7.00
Cc1sc(-c2ccccc2)nc1CCOc1ccc(C[C@@H](C(=O)O)n2cccc2)cc1 [drawing 269]	92	76	-20	–	5.04
Cc1oc(-c2ccccc2)nc1CC#Cc1ccc(CC(C(=O)O)c2ccc(-c3ccccc3)cc2)cc1 (centres unmarked)	–	–	-21	86 @ 5 μM % BRL	5.57
Cc1oc(-c2ccccc2)nc1CCC(=O)c1ccc(CC(C(=O)O)n2cccc2)cc1 (centres unmarked) [drawing 276]	3	–	–	–	–
Cc1oc(-c2ccccc2)nc1CCOc1ccc(CC[C@@H](C(=O)O)n2cccc2)cc1	–	–	62	82 @ 5 μM % BRL	5.89
O=C(O)[C@H](Cc1ccc(OCCN2CCN(c3ccccc3)CC2)cc1)n1cccc1	82	32	-40	–	–
COC(=O)[C@H](Cc1ccc(C#CCN(C)c2ccccn2)cc1)n1cccc1	29	38	71	–	5.25
Cc1oc(-c2ccccc2)nc1CCCc1ccc(CC(C(=O)O)c2ccccc2)cc1 (centres unmarked)	–	0.1122	–	–	–
Cc1oc(-c2ccccc2)nc1CCOc1ccc(CC(C(=O)O)c2ccncc2)cc1 (centres unmarked)	2	20	55	–	–
Cc1oc(-c2ccccc2)nc1CCOc1ccc(CC(C(=O)O)c2cccs2)cc1 (centres unmarked)	88	111	-127	–	–
CC(=O)c1cccn1[C@@H](Cc1ccc(OCc2ccccc2F)cc1)C(=O)O	3	25	-40	–	–
Cc1oc(-c2ccccc2)nc1CC#Cc1ccc(CC(C(=O)O)c2cccnc2)cc1 (centres unmarked)	–	–	-15	49 @ 5 μM % BRL	4.47
Cc1ccc(C)n1[C@@H](Cc1ccc(OCc2ccccc2F)cc1)C(=O)O	2	34	–	–	–
Cc1oc(-c2ccccc2)nc1CCOc1ccc([C@@H](C(=O)O)n2cccc2)cc1	–	57	39	47 % BRL	5.44
Cc1oc(-c2ccccc2)nc1CCOc1ccc(C[C@H](C(=O)O)n2cccc2)cc1	96	–	–	87 @ 5 μM % BRL	–
CN(C/C=C/c1ccc(C[C@@H](C(=O)O)n2cccc2)cc1)c1ccccc1	–	79	-29	–	5.77
CN(CCCc1ccc(C[C@@H](C(=O)O)n2cccc2)cc1)c1ccccn1	113	64	–	–	–
Cc1oc(-c2ccccc2)nc1CCOc1ccc(C[C@@H](C(=O)O)n2cccc2)cc1	–	–	–	83 @ 5 μM % BRL	–

— patent publication US20030171377A1, “Antidiabetic agents” (priority 2001, published 2003)
